Article PMC8886574, “Synthesis, physicochemical characterization and neuroprotective evaluation of novel 1-hydroxypyrazin-2(1H)-one iron chelators in an in vitro cell model of Parkinson's disease” (Dalton Transactions (Cambridge, England : 2003), 2022)
Like-named read-outs stand apart in the source and are kept apart here. Each block holds one molecule with its values, some of them ahead of it.

Columns and labels:
[1] = cited from earlier work
[2] = Trolox equivalent antioxidant capacity (TEAC) assay, ABTS radical cation decolorization; format: biochemical; settings: for time to complete reaction with ABTS radical cation: TEAC assay
Description: 2,2′-Azinobis-(3-ethylbenzothiazoline)-6-sulfonic acid radical cation (ABTS˙^+) is a blue/green chromophore that absorbs at 745 nm and was produced through the reaction between ABTS and potassium persulfate. Addition of antioxidants to the radical cation reduces it to the non-absorbing ABTS to an extent and on a time-scale depending on its antioxidant activity, the concentration of the antioxidant and the duration of the reaction. […] The TEAC value for a given ligand at a given time point was obtained by dividing the corresponding slope of the ligand by the slope of Trolox (Table 3 and Fig. S21 ^†).
TEAC values were calculated according to an ABTS radical cation decolorization assay. 2,2′-Azinobis-(3-ethylbenzothiazoline-6-sulphonic acid diammonium salt (ABTS, 7 mM) was dissolved in water (10 mL) and exposed to potassium persulphate (2.45 mM). After a 16-hour incubation period (dark, room temperature), the resulting solution was diluted with HPLC-grade methanol such that the absorbance of the solution at 745 nm was around 0.7. ABTS˙^+ solution (2 mL) was loaded into a cuvette and the absorbance was recorded at 745 nm. 50 μL of various concentrations of the given ligand solution were then added, the cuvette was vigorously shaken and the absorbance was measured after 1, 3 and 6 minutes. Data were plotted such that for each time point a linear system of percentage of inhibition of ABTS˙^+versus concentration of ligand was obtained. The slope of each plot was normalised with respect to that of Trolox to give the Trolox equivalence value for each time point.

[3] = tested on: SH-SY5Y neuroblastoma cells; design: method as in earlier work; settings: studied previously ref 27; cited from earlier work
[4] = DPPH radical scavenging assay; format: biochemical
[5] = design: method as in PMID 32078022; settings: cited from earlier work
[6] = cited from earlier work; remark: listed apart in the source
[7] = tested on: SH-SY5Y neuroblastoma cells; assay: Neuroprotection against 6-OHDA insult, MTT cell viability assay; format: cell-based, Human; settings: for neuroprotection against 6-OHDA (in words): 0–300 μM, pre-incubation 1 hour, 6-OHDA 24 hours; for % 6-OHDA Rescue (at 100 µM): 100 µM dose of the compound; for cell viability restored: human, 24 h
Experimental: We next evaluated the neuroprotective ability of these compounds when cells are exposed to 6-hydroxydopamine (6-OHDA), a neurotoxin that emulates various pathological aspects of PD in dopaminergic neurons, in both in vitro and in vivo disease models, including mitochondrial impairment and cell death.[26c,28,46] […] Cells were pre-treated with the compound of interest at different concentrations for 1 hour prior to treatment with 6-OHDA ([…]) for a further 24 hours.
Human SH-SY5Y neuroblastoma cells (ATCC® CRL-2266™) were plated at 20 000 cells per well in 96-well microplates, and left to adhere overnight to the well surface, in cell culture media composed of 50% advanced minimum essential medium (MEM), 50% Ham's F12 medium, 1% L-glutamine, that was supplemented with 2% fetal bovine serum (FBS). All media components were obtained from Thermo Fisher Scientific (Gibco™).
Each well's media was then replaced with 100 μL per well of serum free media, containing ascending concentrations of the novel compounds that ranged from 0–300 μM. Cells were pre-incubated with the compounds for 1 hour at 37 °C, 5% CO2, before exposure to 50 μM 6-OHDA (apart from the wells containing non-toxin treated control cells) for a further 24 hours. Just before application to cells, a 10 mM 6-OHDA hydrochloride (Sigma-Aldrich) stock concentration was prepared, by dissolving the powder in 1 mL distilled water containing 0.1% ascorbic acid (Sigma-Aldrich); the solution was protected against light and kept on ice until use.
After a further 24 hours incubation period at 37 °C in a 5% CO2 environment, cell viability was measured using the tetrazolium dye, 3-(4,5-dimethylthiazol-2-yl)-2,5-diphenyltetrazolium bromide (MTT). For this colorimetric assay, 11 μL of MTT (5 mg mL^−1) was added to the 100 μL media per well, and then incubated for 3 hours at 37 °C, 5%, CO2. For lysing the cells, an equal volume of solubilizing solution (dimethyl sulfoxide (DMSO)) was added to each well and mixed thoroughly. Absorption was measured at a wavelength of 570 nm by using a scanning multiwell spectrophotometer (Sunrise Tecan, Durham, NC, USA). Cell viability was calculated as a percentage compared to the untreated (not receiving toxin or drug compound) control wells. Data is expressed as the means ± the SEM of three independent experiments. Statistical analyses of the MTT-derived cell viability data were performed using Prism software (v3, GraphPad, San Diego, CA, USA) and using a one-way ANOVA, followed by a Dunnett's post-hoc test for multiple comparisons. Results were considered significant at P < 0.05.

[8] = Fe^3+ complexation: stability constants (log β) and sequestering ability (pL0.5) by spectrophotometric titration; settings: solvent H2O; for log β FeL / log β FeL2 / log β FeL3: Fe^3+ complex; for pL0.5: towards Fe^3+ at pH 7.4, [Fe^3+] = 10^−9 M
[9] = Protonation constants (log K) of ligands by UV-visible spectrophotometric titration vs. pH; format: physicochemical; settings: for log K LH2 / log K LH: Solvent H2O; for log K LH: I = 0.1 M (NaClO4), T = 25.0 °C; for pKa: value used as input for BBB score (Tables S1–S6)
Experimental: For ligand 10a, protonation constants of the ligand were studied in both media while complexation studies were carried out only in the mixed solvent for solubility reasons.

[10] = Distribution coefficients (log D7.4), Shake Flask method, n-octanol / HEPES buffer pH 7.4; format: physicochemical; settings: free ligand, n-octanol / HEPES buffered aqueous phase pH 7.4
Experimental: The method is based on the principle that the solute's distribution is determined as a ratio of concentrations of the test compound in a solution mixture, consisting of two immiscible phases, namely n-octanol and an aqueous buffer (HEPES buffer, pH 7.4).

[11] = Solubility as observed during the studies (in words); format: physicochemical; settings: for solubility in the aqueous phase (in words): HEPES-buffered aqueous phase pH 7.4 of log D7.4 determination, ligands and their Fe^3+ complexes
[12] = value used as input for BBB score (Tables S7–S9), previously studied ligands ref 28

SMILES: CC(=O)N(O)CCCCCNC(=O)CCC(=O)N(O)CCCCCNC(=O)CCC(=O)N(O)CCCCCN [DFO, desferrioxamine, reference compound]
log β ([1]; iron affinity ref 57a,b): 30.5

SMILES: Cc1c(O)c(=O)ccn1C [DFP 1, deferiprone, reference compound]
time to complete reaction with ABTS radical cation [2]: ≤ 1 min
Antioxidant activity as TEAC ([2]; t = 1 min): ∼0.7 mM
Antioxidant activity as TEAC ([2]; t = 3 min): ∼0.7 mM
Antioxidant activity as TEAC ([2]; t = 6 min): ∼0.7 mM
% 6-OHDA Rescue (at 100 µM) [3]: 117%
EC50 ([4]; methanol, steady-state): 8 µg/mL
EC50 ([4]; read-out: EC50): 58 µM

SMILES: O=c1cccc(CO)n1O [Ligand 2]
log D7.4 of Fe^3+ complex ([5]; Fe^3+ complex of the ligand ref 28): −0.18
log D7.4 ([5]; free ligand ref 28): −1.71
pKa [6, 12]: 6.02
% 6-OHDA Rescue (at 100 µM) [3]: 93%

SMILES: O=C(O)c1cccn(O)c1=O [Ligand 3]
pKa [6, 12]: 3.7
% 6-OHDA Rescue (at 100 µM) [3]: 84%

SMILES: NCCc1cc(O)c(O)cc1O [Ligand 6-OHDA, 6-hydroxydopamine, reference compound]
decrease of cell viability ([7]; toxin only, 24 hours): approximately 50%

SMILES: O=c1cnccn1O [unsubstituted 1-hydroxypyrazin-2(1H)-one, 1-hydroxypyrazin-2(1H)-one]
pKa ([6]; published previously ref 35): 4.4

Second part, led by results:

log β FeL [8]: 10.38(6)
log β FeL2 [8]: 18.1(4)
log β FeL3 [8]: 23.85(1)
pL0.5 [8]: 4.36
log K LH2 [9]: 0.04(2)
log K LH [9]: 4.58(4)
pKa [9]: 4.58
logD [10]: -1.73
SMILES: Cc1ncc(=O)n(O)c1C [Ligand 6a, 1-Hydroxy-5,6-dimethylpyrazin-2(1H)-one]
neuroprotection against 6-OHDA (in words) [7]: fully rescued
% 6-OHDA Rescue (at 100 µM) [7]: 100%
cell viability restored [7]: ≥ 89%
Antioxidant activity as TEAC ([2]; t = 1 min): 0.08 mM
Antioxidant activity as TEAC ([2]; t = 3 min): 0.16 mM
Antioxidant activity as TEAC ([2]; t = 6 min): 0.22 mM
pKa ([6]; published previously ref 35): 4.7
log β3 ([1]; 1 : 3 Fe^3+ complex, different experimental conditions ref 35): 20.2

pKa [9]: 5.53
solubility in the aqueous phase (in words) [11]: low solubilities
solubility in water (in words) [11]: very low solubility in water
SMILES: Cc1nc(Cc2ccccc2)c(=O)n(O)c1C [Ligand 6c, 1-Hydroxy-3-benzyl-5,6-dimethylpyrazin-2(1H)-one]
neuroprotection against 6-OHDA (in words) [7]: partially prevented
% 6-OHDA Rescue (at 100 µM) [7]: 89%
cell viability restored [7]: ≥ 89%
Antioxidant activity as TEAC ([2]; t = 1 min): 0.21 mM
Antioxidant activity as TEAC ([2]; t = 3 min): 0.31 mM
Antioxidant activity as TEAC ([2]; t = 6 min): 0.40 mM

pKa [9]: 5.96
solubility in the aqueous phase (in words) [11]: low solubilities
solubility in water (in words) [11]: very low solubility in water
SMILES: Cc1nc(Cc2ccc(O)cc2)c(=O)n(O)c1C [Ligand 6d, 1-Hydroxy-3-(4-hydroxybenzyl)-5,6-dimethylpyrazin-2(1H)-one]
% 6-OHDA Rescue (at 100 µM) [7]: 64%
Antioxidant activity as TEAC ([2]; t = 1 min): 0.41 mM
Antioxidant activity as TEAC ([2]; t = 3 min): 0.55 mM
Antioxidant activity as TEAC ([2]; t = 6 min): 0.64 mM

log K LH2 [9]: ∼−0.6
log K LH [9]: 3.18(1)
pKa [9]: 3.18
logD [10]: -1.2
solubility in water (in words) [11]: very low solubility in water
SMILES: O=c1cncc(-c2ccccc2)n1O [Ligand 10a, 1-Hydroxy-6-phenylpyrazin-2(1H)-one]
neuroprotection against 6-OHDA (in words) [7]: only marginal protection
% 6-OHDA Rescue (at 100 µM) [7]: 63%
time to complete reaction with ABTS radical cation [2]: ~3 min
Antioxidant activity as TEAC ([2]; t = 1 min): 0.66 mM
Antioxidant activity as TEAC ([2]; t = 3 min): 0.69 mM
Antioxidant activity as TEAC ([2]; t = 6 min): 0.70 mM

melting point: 176.8 to 179 °C
solubility in water (in words) [11]: low water solubilities
SMILES: COc1ccc(-c2cncc(=O)n2O)cc1 [Ligand 10b, 1-Hydroxy-6-(4-methoxyphenyl)-pyrazin-2(1H)-one]

melting point: 210.6 to 212.5 °C
solubility in water (in words) [11]: low water solubilities
SMILES: O=c1cncc(-c2ccc(F)cc2)n1O [Ligand 10c, 1-Hydroxy-6-(4-fluorophenyl)-pyrazin-2(1H)-one]

pKa [9]: 4
SMILES: O=c1cncc(-c2ccc(O)cc2)n1O [Ligand 10d, 1-Hydroxy-6-(4-hydroxyphenyl)-pyrazin-2(1H)-one]
neuroprotection against 6-OHDA (in words) [7]: partially prevented
% 6-OHDA Rescue (at 100 µM) [7]: 76%

log β FeL [8]: 7.83(1)
log β FeL2 [8]: 14.28(2)
log β FeL3 [8]: 20.19(4)
pL0.5 [8]: 3.13
log K LH2 [9]: 0.2(2)
log K LH [9]: 3.98(5)
pKa [9]: 3.98
logD [10]: -0.4
SMILES: Cc1cncc(=O)n1O [Ligand 11a, 1-Hydroxy-6-methylpyrazin-2(1H)-one]
% 6-OHDA Rescue (at 100 µM) [7]: 60%
Antioxidant activity as TEAC ([2]; t = 1 min): 0.02 mM
Antioxidant activity as TEAC ([2]; t = 3 min): 0.03 mM
Antioxidant activity as TEAC ([2]; t = 6 min): 0.05 mM
